# What was measured:
# S. aureus = details: atropisomers compared; cited from earlier work
# B. subtilis 168 cells = assay: Membrane dye FM 5–95 labeling after compound exposure; type: cell-based, Bacillus subtilis; details: B. subtilis 168, 1× MIC, 15 min; CCCP 100 μM
# [1] = system: GFP-MinD in B. subtilis cells; assay: GFP-MinD localization; type: cell-based, Bacillus subtilis; details: 10 min, 1× MIC, CCCP 100 μM
# B. subtilis 168 = assay: MIC, broth microdilution; type: cell-based; details: Bacillus subtilis, 168, 20 h, read-out: MIC B. subtilis 168
# S. aureus NCTC8325 cells = assay: Protonophore assay, intracellular pH by BCECF AM; type: cell-based, Staphylococcus aureus; details: 1× MIC, 10 min; for intracellular pH after compound addition: dropped from pH 7.8
# S. aureus NCTC8325 [2] = assay: MIC, broth microdilution; type: cell-based; details: Staphylococcus aureus, NCTC8325, 20 h, read-out: MIC S. aureus NCTC8325
# S. aureus NCTC8325 [3] = assay: Pore-forming assay, SYTO9/propidium iodide costaining; type: cell-based, Staphylococcus aureus; details: 4× MIC; nisin 100 μg mL^–1; 35 min
Compound,MIC (B. subtilis 168),drop of intracellular pH (Δ) (S. aureus NCTC8325 cells),intracellular pH after compound addition (S. aureus NCTC8325 cells),MIC (S. aureus NCTC8325 [2]),membrane integrity / pore formation (SYTO9/propidium iodide) (S. aureus NCTC8325 [3]),other results
"O=C(c1ccccc1O)c1[nH]c(Cl)c(Cl)c1-n1c(C(=O)c2ccccc2O)cc(Cl)c1Cl (atropisomer, axis not shown; (M)) [(−)-(M)-MarA]",,,,,,potency against S. aureus (S. aureus): equal potency
"N#CC(C#N)=NNc1cccc(Cl)c1 [CCCP, carbonyl cyanide m-chlorophenyl hydrazone]",,,,,,"localization of membrane dye FM 5–95 after treatment (B. subtilis 168 cells): aggregated, inhomogeneous, “spotty” localization; GFP-MinD localization after treatment [1]: diffuse and spotty"
"Oc1c(Br)cc(Br)cc1-c1[nH]c(Br)c(Br)c1Br [compound 2, pentabromopseudilin]",16 ng/mL,0.2 pH units,7.6,16 ng/mL,,
"Oc1c(Cl)cc(Cl)cc1-c1[nH]c(Cl)c(Cl)c1Cl [compound 3, pentachloropseudilin]",4 ng/mL,0.2 pH units,7.6,4 ng/mL,only green fluorescence,
nisin [reference compound],,,,,clear red fluorescence indicative of pore formation,
